The source of these data is patent US11980209B2, “Consumables” (GIVAUDAN SA, priority 2007, dated 2024).

The structures appear in SMILES notation.

Test [1] has as its system perceived sweet taste (sweet sensitive panelists). Put plainly: Ranking test with R-index, isointensity of 15 and 20 ppm HDG in water (Example 1d). Format: in vivo, human. To be noted: for R-index: critical values 37.26-62.74%. The procedure:
All examples were performed with sweet sensitive panelists able to detect at least 0.5% of sucrose or less, unless stated otherwise. The concentration detectable by the average consumer will be higher. The results were obtained using 20 panelists in two replications.
The sucrose concentration that tastes isointense in sweetness to HDG was determined using samples of 15 ppm and 20 ppm, each of which was directly compared to a sucrose sample (sucrose solutions of 0.5%, 1%, 1.5% and 2% concentration). Fifteen milliliters of each blinded sample was presented, at room temperature, in random order to 20 sweet sensitive panelists. In two replications (over 1 session), panelists were asked to rank the solutions, from least sweet to most sweet. The data was subjected to an R-index analysis.

The subject of test [2] is perceived sweet taste (panel). Put plainly: Small panel ranking of 5-20 ppm HDG in water (Example 1d). In kind it is in vivo, human. To be noted: for Rank and taste: rank from least sweet to most sweet. The procedure: Further three small panel testings were performed. HDG samples were prepared in concentrations of 5 ppm, 10 ppm, 15 ppm, and 20 ppm in water. All the samples were coded (presented blind) and given to the panel in random order. The panel was also presented with sucrose solutions for comparison. The panel was asked to taste each sample and rank the samples from the least sweet to most sweet.

In test [3] the test system is perceived sweet taste (sweet sensitive panelists). As to the kind of experiment: Ranking test with R-index, isointensity of 20 ppm HDG in 7% sucrose (Example 2b). Format: in vivo, human. To be noted: for R-index: critical values 37.11-62.89%. An excerpt:
Panels consisted of 20 sweet sensitive subjects and samples were presented in 2 replications over 1 session. Panelists were presented with 7%, 8%, 9% and 10% sucrose solutions in water and a fifth sample of 20 ppm HDG in 7% sucrose in random order. Subjects were asked to rank the samples from low to high with respect to perceived sweet taste.

Test [4] relates to perceived sweetness (sweet sensitive panelists). Put plainly: Ranking test with R-index, sweetness enhancement by 10 ppm HDG in 7% sucrose (Example 12). Format: in vivo, human. To be noted: for R-index: critical value 37.1 to 62.9%. The procedure:
The degree of sweetness enhancement of HDG was tested by determining the isointensity of the HDG-enhanced samples in comparison to sucrose samples. The samples contained 10 ppm HDG in 7% sucrose (HDG-10), and various sucrose solutions of different concentration in water (7%, 8%, 9%, and 10%).
15 ml of each sample was presented at room temperature and in random order to 20 sweet sensitive panelists. In two replications over 1 session, panelists were asked to compare and rank the samples from least sweet to most sweet. The critical value indicates the range wherein the difference of two samples is non-significant.

The test system of test [5] is perceived sweetness (panelists). Put plainly: Sweetness of HDG in a cola beverage (Example 14). Particulars: 20 ppm HDG in cola beverage sweetened with 7% sucrose. Format: in vivo, human. The text has this:
20 ppm of HDG in a cola beverage sweetened with 7% sucrose was compared to control samples (cola without HDG and sweetened with 7 or 9% sucrose) by 9 panelists.
Panelists were instructed to taste and compare the samples in their sweetness intensity and profile.

The subject of test [6] is perceived sweet taste (sweet sensitive panelists). As to the kind of experiment: Ranking test of 2 ppm NHDC in water (Example 7). In kind it is in vivo, human.
Another test relates to sucrose sweetness. Particulars: NHDC at its sweetness detection threshold; Kroeze et al., Chem. Senses 2000; cited from earlier work.
Test [7] has as its system perceived sweetness (sweet sensitive panelists). As to the kind of experiment: Determined isointensities to sucrose solutions of the optional enhancers. In kind it is in vivo, human. The procedure: The sweetness detection threshold for trilobatin, HDG and optional enhancers were determined by the applicant.
The sweetness detection threshold varies somewhat in different individuals. For example, some individuals are able to detect the sweetness of sucrose in a very low concentration of 0.4%, others need at least 0.7%, or at least 1% or even more. All examples were performed with sweet sensitive panelists able to detect at least 0.5% of sucrose or less. The concentration detectable by the average consumer will therefore be higher.

The test system is the same in test [8]. Put plainly: Sweetness rating on generalized labeled magnitude scale (Example 6). In kind it is in vivo, human. Particulars: 1% sucrose in water, test run 3. An excerpt:
Further, panelists were asked to rate each presented sample for sweetness using the generalized labeled magnitude scale (0=no sweetness; […] of any kind). The rating data was compared using the paired t-test.

The mark [9] stands for this setting: 10 ppm HDG in 7% sucrose vs 7% sucrose.
Where [10] appears, read: 10 ppm HDG in 7% sucrose vs 8% sucrose.
Where [11] appears, read: 10 ppm HDG in 7% sucrose vs 9% sucrose.
[12] abbreviates: 10 ppm HDG in 7% sucrose vs 10% sucrose.

As for `COc1ccc(CCC(=O)c2c(O)cc(O[C@@H]3O[C@H](CO)[C@@H](O)[C@H](O)[C@H]3O)cc2O)cc1O` [HDG, 1-[4-(-D-glucopyranosyloxy)-2,6-dihydroxyphenyl]-3-(3-hydroxy-4-methoxyphenyl)-1-propanone], the R-index in test [1] (15 ppm HDG in water vs 0.5% sucrose) is given as 85%; in test [1] (15 ppm HDG in water vs 1.0% sucrose) it was 31%; in test [1] (15 ppm HDG in water vs 1.5% sucrose), 10%; in test [1] (15 ppm HDG in water vs 2.0% sucrose), 1%; in test [1] (20 ppm HDG in water vs 0.5% sucrose) it was 92%; in test [1] (20 ppm HDG in water vs 1.0% sucrose), 51%. In addition, the R-index in test [1] (20 ppm HDG in water vs 1.5% sucrose) is 33%; in test [1] (20 ppm HDG in water vs 2.0% sucrose) it was 4%; in test [3] (20 ppm HDG in 7% sucrose vs 7% sucrose), 94.8%; in test [3] (20 ppm HDG in 7% sucrose vs 8% sucrose) it was 62.6%; in test [3] (20 ppm HDG in 7% sucrose vs 9% sucrose) it was 46.0%; in test [3] (20 ppm HDG in 7% sucrose vs 10% sucrose) it was 6.8%. In addition, the R-index in [4] (setting [9]) is listed as 75.2%; in [4] (setting [10]) it was 37.5%; in [4] (setting [11]), 10.7%; in test [4] (setting [12]) it was 0.6%. For the same molecule, the “sample sweetness (HDG, 15 ppm)” value in test [1] (15 ppm in water vs 0.5% sucrose solution) was “sweeter”; in [1] (15 ppm in water vs 1.0% sucrose solution) it was “less sweet”; in test [1] (15 ppm in water vs 1.5% sucrose solution) it was “less sweet”; in test [1] (15 ppm in water vs 2.0% sucrose solution), “less sweet”. In addition, the “sample sweetness (HDG, 20 ppm)” value is listed as “Sweeter” in test [1] (20 ppm in water vs 0.5% sucrose solution), “Isosweet” in [1] (20 ppm in water vs 1.0% sucrose solution), “Less sweet” in test [1] (20 ppm in water vs 1.5% sucrose solution) and “Less sweet” in [1] (20 ppm in water vs 2.0% sucrose solution). Besides, the isointensity to sucrose in test [2] (5 ppm HDG in water) is 0% sucrose (water); in [2] (20 ppm HDG in water), 1 % sucrose; in test [4] (10 ppm HDG in 7% sucrose) it was 8 % sucrose. Besides, the Rank and taste in [2] (5 ppm HDG in water) is 1 - not sweet; in test [2] (10 ppm HDG in water) it was 2 - very slightly sweet; in [2] (15 ppm HDG in water) it was 3 - slightly sweet; in test [2] (20 ppm HDG in water) it was 4 - sweet. The “sweetness threshold of HDG detected by sweet sensitive individuals” value in test [2] (in water) was “about 10 ppm”. In addition, the “added sucrose sweetness intensity” value in test [3] (20 ppm HDG in 7% sucrose) was 1.5-2 ° Brix; in [4] (10 ppm HDG in 7% sucrose) it was “about 1 ° Brix”. The “sample sweetness (7% sucrose + 20 ppm HDG)” value is listed as “Sweeter” in test [3] (vs 7% sucrose solution), “Isosweet” in [3] (vs 8% sucrose solution), “Isosweet” in test [3] (vs 9% sucrose solution) and “Less sweet” in test [3] (vs 10% sucrose solution). Moreover, the “expected isointensity to sucrose assuming a merely additive effect” value in [4] (10 ppm HDG in 7% sucrose) amounted to 7.5%. The “sweetness HDG sample” value in test [4] (setting [9]) is recorded as “sweeter”; in test [4] (setting [10]), “isosweet”; in [4] (setting [11]) it was “less”; in test [4] (setting [12]), “less”. The “sweetness compared to 9% sucrose cola control” value in [5] is “not as sweet”. For the same molecule, in [5] (all 9 panelists), the “sweetness compared to 7% sucrose cola control” value is given as “significantly sweeter”. For the same molecule, the taste profile entry in [5] (similar to the sucrose controls in sweetness onset and duration) was “non-lingering”.
On to `COc1ccc(CCC(=O)c2c(O)cc(O[C@@H]3O[C@H](CO)[C@@H](O)[C@H](O)[C@H]3O[C@@H]3O[C@@H](C)[C@H](O)[C@@H](O)[C@H]3O)cc2O)cc1O` [NHDC, Neohesperidin dihydrochalcone], for which the isointensity to sucrose in test [6] (2 ppm NHDC in water) is 0.5 % sucrose. The NHDC sample sweetness result in [6] (2 ppm NHDC in water vs 0.5% sucrose solution) was “isosweet”; in test [6] (2 ppm NHDC in water vs 1% sucrose solution) it was “less sweet”. Moreover, the R-index in [6] (2 ppm NHDC in water vs 1% sucrose, critical values 35.39-64.61%) is recorded as 5%. The “enhancement of sucrose sweetness” value in the test on sucrose sweetness is “does not enhance sucrose sweetness”.
As for `C[C@@H]1O[C@@H](O[C@H]2[C@H](Oc3cc(O)c(C(=O)CCc4ccc(O)cc4)c(O)c3)O[C@H](CO)[C@@H](O)[C@@H]2O)[C@H](O)[C@H](O)[C@H]1O` [naringin dihydrochalcone, 1-[4-[[2-O-(6-Deoxy-alpha-L-mannopyranosyl)-beta-D-glucopyranosyl]oxy]-2,6-dihydroxyphenyl]-3-(4-hydroxyphenyl)-1-propanone], the values for the isointensity to sucrose in test [7] (45 ppm naringin dihydrochalcone) and in [7] (60 ppm naringin dihydrochalcone) were 0.5 % sucrose and 1.25 % sucrose, respectively.
`C=C1C[C@@]23CC[C@H]4[C@@](C)(CCC[C@@]4(C)C(=O)O[C@@H]4O[C@H](CO)[C@@H](O)[C@H](O)[C@H]4O)[C@@H]2CC[C@]1(O[C@@H]1O[C@H](CO)[C@@H](O)[C@H](O[C@@H]2O[C@H](CO)[C@@H](O)[C@H](O)[C@H]2O)[C@H]1O[C@@H]1O[C@H](CO)[C@@H](O)[C@H](O)[C@H]1O)C3` [rebaudioside A, Rebaudioside A]: the isointensity to sucrose in test [7] (20 ppm rebaudioside A) was determined as 0.75 % sucrose.
For the molecule `C=C1C[C@@]23CC[C@H]4[C@@](C)(CCC[C@@]4(C)C(=O)O[C@@H]4O[C@H](CO)[C@@H](O)[C@H](O)[C@H]4O)[C@@H]2CC[C@]1(O[C@@H]1O[C@H](CO)[C@@H](O)[C@H](O)[C@H]1O[C@@H]1O[C@H](CO)[C@@H](O)[C@H](O)[C@H]1O)C3` [stevioside, Stevioside], the isointensity to sucrose in test [7] (30 ppm stevioside) turned out to be 0.5 % sucrose; in [7] (40 ppm stevioside) it was 0.75 % sucrose.
On to `OC[C@H]1O[C@@](CO)(O[C@H]2O[C@H](CO)[C@@H](O)[C@H](O)[C@H]2O)[C@@H](O)[C@@H]1O` [sucrose, alpha-D-glucopyranosyl-(1→2)-beta-D-fructofuranose], for which the “sweetness rating, generalized labeled magnitude scale (0=no sweetness; 10=strongest imaginable sensation)” value in test [8] was found to be 0.72 ± 0.06.
